Publication PMC8380656, “The structure and flexibility analysis of the Arabidopsis synaptotagmin 1 reveal the basis of its regulation at membrane contact sites” (Life Science Alliance, 2021)

T1: SYT1C2A (Arabidopsis thaliana, UniProt Q9SKR2)
T1 construct: gene SYT1; C2A domain, residues K253-E397; pGEX6P1, GST tag cleaved with PreScission protease; expressed in E. coli Rosetta 2 (DE3) pLysS
T1 sequence (Q9SKR2 253-397): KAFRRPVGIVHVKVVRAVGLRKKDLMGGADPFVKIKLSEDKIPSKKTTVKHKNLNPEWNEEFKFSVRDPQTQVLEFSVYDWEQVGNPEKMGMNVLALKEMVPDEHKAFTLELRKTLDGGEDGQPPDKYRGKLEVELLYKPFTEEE


Assays:
SYT1C2A = molecular target: T1, SYT1C2A; assay: thermal shift, label-free nanoDSF (Tycho NT.[…]); format: binding; details: 58 μM ligand, 5.8 μM protein, 20 μM EGTA, Tris-HCl pH 8.0; absolute inflexion temperature, unbound control 57.4 ± 0.5; polybasic site
[1] = molecular target: the molecule itself; assay: SAXS (SEC-SAXS); 45 ul of SYT1SMPC2A at 6.6 mg ml^-1 injected onto Superdex 200 increase 3.2/300 at 20°C; 20 mM Tris pH 8, 100 mM NaCl, 5% glycerol, 2 mM DTT; molecular mass from the Porod volume

SYT1C2A (SYT1C2A) | Molecule | stoichiometry N [1]
65.2 ± 0.4 °C | O=P(O)(O)O[C@H]1[C@H](OP(=O)(O)O)[C@@H](OP(=O)(O)O)[C@@H](O)[C@@H](O)[C@@H]1OP(=O)(O)O [IP(3,4,5,6), inositol 3,4,5,6-tetraphosphate] | 
64.2 ± 0.1 °C | O=P(O)(O)O[C@H]1[C@H](O)[C@@H](O)[C@H](OP(=O)(O)O)[C@@H](OP(=O)(O)O)[C@H]1O [IP(1,3,4), inositol 1,3,4-trisphosphate] | 
62.6 ± 0.2 °C | O=P(O)(O)O[C@@H]1[C@@H](OP(=O)(O)O)[C@H](OP(=O)(O)O)[C@@H](O)[C@@H](O)[C@H]1OP(=O)(O)O [IP(1,4,5,6), inositol 1,4,5,6-tetraphosphate] | 
59.4 ± 0.2 °C | O=P(O)(O)O[C@H]1[C@H](O)[C@@H](O)[C@H](OP(=O)(O)O)[C@@H](O)[C@H]1O [IP2, inositol 1,4-biphosphate] | 
62.60 ± 0.05 °C | O=P(O)(O)O[C@@H]1[C@H](O)[C@H](O)[C@@H](OP(=O)(O)O)[C@H](OP(=O)(O)O)[C@H]1O [IP3, inositol 1,4,5-trisphosphate] | 
 | SYT1-SMPC2A (Arabidopsis synaptotagmin 1, SMP and C2A domains, residues N34-E397) (domain or fragment, UniProt Q9SKR2 34-397, looked up, Expressed from pGEX6P1; also called SMP2C2A; source: E. coli Rosetta 2 (DE3) pLysS, purified (Glutathione Sepharose 4B, GST cleaved with Precission protease, Superdex 200)) NDVKDPEIRSIADQDPKAMLRMLPEIPLWVKNPDFDRVDWINRFLEYMWPYLDKAICKTAKNIAKPIIEEQIPKYKIDSVEFETLTLGSLPPTFQGMKVYLTDEKELIMEPCLKWAANPNILVAIKAFGLKATVQVVDLQVFAQPRITLKPLVPSFPCFANIYVSLMEKPHVDFGLKLGGADLMSIPGLYRFVQEQIKDQVANMYLWPKTLVVPILDPAKAFRRPVGIVHVKVVRAVGLRKKDLMGGADPFVKIKLSEDKIPSKKTTVKHKNLNPEWNEEFKFSVRDPQTQVLEFSVYDWEQVGNPEKMGMNVLALKEMVPDEHKAFTLELRKTLDGGEDGQPPDKYRGKLEVELLYKPFTEEE | 2
